Patent US20240208934A1, “ULK1/2 INHIBITORS AND THEIR USE THEREOF” (LifeArc, priority 2021, published 2024)
pIC50: −log10 of the molar value.

system: ULK; assay: ULK radiometric assay (33P incorporation onto MBP substrate, glass fiber capture filter); details: ULK Biochemical activity; 20 uM ATP, 0.2 mg/mL MBP; averages of at least two independent experiments
Method: ULK activity was measured using a radiometric assay, to measure the incorporation of radiolabelled ^33P onto MBP substrate using a glass fiber capture filter method. Reaction conditions were 0.2 mg/mL MBP, 20 uM ATP (0.25 μCi/well), 50 mM Tris HCl, pH7.5, 10 mM MgCl2, 0.1% beta-mercaptoethanol, 0.1 mM EGTA, 0.01% BSA. Ten point Half log Compound dilution series were prepared in 100% DMSO and added to the reaction to give final assay concentration of 10% DMSO. Compounds were tested in duplicate and values normalized to 10% DMSO only controls. The data were fitted to a four parameter fit equation and the IC50 values shown are averages of at least two independent experiments.

pIC50 | Compound
6.00 to 6.70 | CC(=O)N1CCc2cc(Cl)c(Nc3ncc(C(F)(F)F)c(NCCCN4CCCCC4=O)n3)cc2C1 [Example 56, 1-[3-[[2-[(2-Acetyl-6-chloro-3,4-dihydro-1H-isoquinolin-7-yl)amino]-5-(trifluoromethyl)pyrimidin-4-yl]amino]propyl]piperidin-2-one]
≤ 6.00 | COCc1ccc(Nc2ncc(C(F)(F)F)c(NCCCN3CCCCC3=O)n2)c(OC)c1 [Example 34, 1-[3-[[2-[2-Methoxy-4-(methoxymethyl)anilino]-5-(trifluoromethyl)pyrimidin-4-yl]amino]propyl]piperidin-2-one]
≤ 6.00 | CN(C)S(=O)(=O)c1cc2c(c(Nc3ncc(C(F)(F)F)c(NCCCN4CCCCC4=O)n3)c1)OCC2 [Example 50, N,N-dimethyl-7-[[4-[3-(2-oxo-1-piperidyl)propylamino]-5-(trifluoromethyl)pyrimidin-2-yl]amino]-2,3-dihydrobenzofuran-5-sulfonamide]
6.00 to 6.70 | FC(F)(F)c1cnc(Nc2ccc(CCN3CCCC3)cc2)nc1NCc1cc[nH]n1 [Example 86, N4-(1H-pyrazol-3-ylmethyl)-N2-[4-(2-pyrrolidin-1-ylethyl)phenyl]-5-(trifluoromethyl)pyrimidine-2,4-diamine]
> 6.70 | COc1cc2c(cc1Nc1ncc(C(F)(F)F)c(NCCCNC(=O)C3CCC3)n1)CNCC2 [Example 82, N-[3-[[2-[(6-methoxy-1,2,3,4-tetrahydroisoquinolin-7-yl)amino]-5-(trifluoromethyl)pyrimidin-4-yl]amino]propyl]cyclobutanecarboxamide]
6.00 to 6.70 | COc1cc(C(=O)NC2CCNCC2)ccc1Nc1ncc(C(F)(F)F)c(NCCCN2CCCCC2=O)n1 [Example 42, 3-Methoxy-4-[[4-[3-(2-oxo-1-piperidyl)propylamino]-5-(trifluoromethyl)pyrimidin-2-yl]amino]-N-(4-piperidyl)benzamide]
> 6.70 | CN1CCc2ccc(Nc3ncc(C4CC4)c(NCCCN4CCCCC4=O)n3)cc2C1 [Example 12, 1-(3-((5-Cyclopropyl-2-((2-methyl-1,2,3,4-tetrahydroisoquinolin-7-yl)amino)pyrimidin-4-yl)amino)propyl)piperidin-2-one]
≤ 6.00 | COc1cc2c(cc1Nc1ncc(C(F)(F)F)c(NCCCN3CCCCC3=O)n1)C(=O)N(C)C2 [Example 37, 5-Methoxy-2-methyl-6-[[4-[3-(2-oxo-1-piperidyl)propylamino]-5-(trifluoromethyl)pyrimidin-2-yl]amino]isoindolin-1-one]
> 6.70 | Cc1cc2c(cc1Nc1ncc(C(F)(F)F)c(NCCCN3CCCCC3=O)n1)CNCC2 [Example 23, 6-methyl-7-[[4-[3-(2-oxo-1-piperidyl)propylamino]-5-(trifluoromethyl)pyrimidin-2-yl]amino]-3,4-dihydro-1H-isoquinoline]
> 6.70 | O=C(NCCCNc1nc(Nc2ccc3c(c2)CCNC3)ncc1C(F)(F)F)C1CCC1 [Example 62, N-(3-((2-((1,2,3,4-tetrahydroisoquinolin-6-yl)amino)-5-(trifluoromethyl)pyrimidin-4-yl)amino)propyl)cyclobutanecarboxamide]
≤ 6.00 | COc1cc2c(cc1Nc1ncc(C(F)(F)F)c(N3CCC(NC(C)=O)CC3)n1)CNCC2 [Example 71, N-[1-[2-[(6-methoxy-1,2,3,4-tetrahydroisoquinolin-7-yl)amino]-5-(trifluoromethyl)pyrimidin-4-yl]-4-piperidyl]acetamide]
≤ 6.00 | CCN(CC)C(=O)C1CCCN(c2nc(Nc3cc4c(cc3OC)CCNC4)ncc2C(F)(F)F)C1 (stereo not shown) [Example 69, N,N-diethyl-1-[2-[(6-methoxy-1,2,3,4-tetrahydroisoquinolin-7-yl)amino]-5-(trifluoromethyl)pyrimidin-4-yl]piperidine-3-carboxamide]
6.00 to 6.70 | O=C1CCCCN1CCCNc1nc(Nc2cc(O)ccc2Cl)ncc1C(F)(F)F [Example 57, 1-[3-[[2-(2-Chloro-5-hydroxy-anilino)-5-(trifluoromethyl)pyrimidin-4-yl]amino]propyl]piperidin-2-one]
> 6.70 | O=C1CCCCN1CCCNc1nc(Nc2cc3c(cc2Cl)CCNC3)ncc1C(F)(F)F [Example 43, 1-[3-[[2-[(6-Chloro-1,2,3,4-tetrahydroisoquinolin-7-yl)amino]-5-(trifluoromethyl)pyrimidin-4-yl]amino]propyl]piperidin-2-one]
6.00 to 6.70 | O=C(CCNc1nc(Nc2cccc(OC3CCNCC3)c2)ncc1C(F)(F)F)N1CCOCC1 [Example 80, 1-Morpholino-3-[[2-[3-(4-piperidyloxy)anilino]-5-(trifluoromethyl)pyrimidin-4-yl]amino]propan-1-one]
> 6.70 | COc1cc2c(cc1Nc1ncc(C(F)(F)F)c(NCCCN3CCCC3=O)n1)CNCC2 [Example 81, 1-[3-[[2-[(6-Methoxy-1,2,3,4-tetrahydroisoquinolin-7-yl)amino]-5-(trifluoromethyl)pyrimidin-4-yl]amino]propyl]pyrrolidin-2-one]
≤ 6.00 | COc1cc2c(cc1Nc1ncc(C(F)(F)F)c(NC3CCN(C(C)=O)CC3)n1)CNCC2 [Example 68, 1-[4-[[2-[(6-Methoxy-1,2,3,4-tetrahydroisoquinolin-7-yl)amino]-5-(trifluoromethyl)pyrimidin-4-yl]amino]-1-piperidyl]ethanone]
≤ 6.00 | FC(F)(F)c1cnc(Nc2ccc(N3CCOCC3)cc2)nc1NCc1cn[nH]c1 [Example 92, N2-(4-morpholinophenyl)-N4-(1H-pyrazol-4-ylmethyl)-5-(trifluoromethyl)pyrimidine-2,4-diamine]
6.00 to 6.70 | COc1cc2c(cc1Nc1ncc(C(F)(F)F)c(NCCCn3ccnc3)n1)CNCC2 [Example 70, N4-(3-imidazol-1-ylpropyl)-N2-(6-methoxy-1,2,3,4-tetrahydroisoquinolin-7-yl)-5-(trifluoromethyl)pyrimidine-2,4-diamine]
> 6.70 | COc1nn(CCN(C)C)cc1Nc1ncc(C(F)(F)F)c(NCCCN2CCCCC2=O)n1 [Example 3, 1-(3-((2-((1-(2-(Dimethylamino)ethyl)-3-methoxy-1H-pyrazol-4-yl)amino)-5-(trifluoromethyl)pyrimidin-4-yl)amino)propyl) piperidin-2-one]
6.00 to 6.70 | FC(F)(F)c1cnc(Nc2ccc(N3CCOCC3)cc2)nc1NCC1CNCCO1 (stereo not shown) [Example 90, N2-(4-morpholinophenyl)-N4-(morpholin-2-ylmethyl)-5-(trifluoromethyl)pyrimidine-2,4-diamine]
6.00 to 6.70 | Cn1cc(Nc2ncc(C(F)(F)F)c(NCCCN3CCCCC3=O)n2)c(OCC(F)(F)F)n1 [Example 48, 1-[3-[[2-[[1-Methyl-3-(2,2,2-trifluoroethoxy)pyrazol-4-yl]amino]-5-(trifluoromethyl)pyrimidin-4-yl]amino]propyl]piperidin-2-one]
> 6.70 | O=C1CCCCN1CCCNc1nc(Nc2cc3c(cc2Cl)CNCC3)ncc1C(F)(F)F [Example 1, 1-(3-(2-(7-Chloro-1,2,3,4-tetrahydroisoquinolin-6-ylamino)-5(trifluoromethyl)pyrimidin-4-ylamino)propyl) piperidin-2-one]
6.00 to 6.70 | COc1cc2c(cc1Nc1ncc(C3CC3)c(NCCCN3CCCCC3=O)n1)CNCC2 [Example 75, 1-[3-[[5-Cyclopropyl-2-[(6-methoxy-1,2,3,4-tetrahydroisoquinolin-7-yl)amino]pyrimidin-4-yl]amino]propyl]piperidin-2-one]

Compound | pIC50
CN1CCC(O)(c2ccc(Nc3ncc(C4CC4)c(NCCCN4CCCCC4=O)n3)cc2)CC1 [Example 14, 1-(3-((5-Cyclopropyl-2-((4-(4-hydroxy-1-methylpiperidin-4-yl)phenyl)amino)pyrimidin-4-yl)amino)propyl)piperidin-2-one] | > 6.70
